Data published in patent US5502061A, “Peptidyl substituted benzamides and naphthamies” (Eli Lilly and Company, priority 1994, dated 1996).

Each compound was assayed against T1, HIV-1 protease (Human immunodeficiency virus type 1 group M subtype B, UniProt P04585) (assay: Fluorescence HIV-1 Protease Inhibitor Assay). Details: concentration giving 25% inhibition; the concentration of the compound was not increased above the stated concentration; normalized to positive control.
T1 construct: made in house; host or cells: E. coli K12 L507/pHP10D (NRRL B-18560)
Type: biochemical
Description: E. Fluorescence HIV-1 Protease Inhibitor Assay
The following buffers and solutions are used in the Fluorescence HIV-1 Protease Inhibitor Assay:
To each well of a round bottom, 96-well plate is added 20 μL of the Enzyme Solution followed by 10 μL of the compound to be evaluated in a 20% aqueous dimethylsulfoxide solution. Purified HIV-1 protease was obtained as described above. […] The solutions are then incubated for 16 hours at room temperature and then each well is diluted with 150 μL of MES-ALB buffer.
To each well of a second round bottom, 96-well Pandex plate is added 25 uL of the Avidin Coated Beads Solution. Then, to each well is added 25 μL of the diluted incubation solutions, prepared above. The solutions are mixed thoroughly and the plates are loaded into a Pandex® machine, washed, evacuated and read. Sample detection was performed by excitation at 485 nm, reading the resulting epifluorescence at 535 nm.

Row | Compound | Fluorescence Assay IC25
1 | CC(C)(C)NC(=O)c1ccccc1CC(O)C(Cc1ccccc1)NC(=O)C(CC(N)=O)NC(=O)C(NC(=O)OC(C)(C)C)c1ccccc1 (stereo not drawn) [Example 17, 2R-(2R*, 3S*, 6S*, 9R*)!-N-t-butyl-2-2-hydroxy-3-phenylmethyl-4,7-diaza 5,8-dioxo-6-(carbamoylmethyl)-9-N(t-butoxycarbonyl)amino-9-phenyl!nonyl benzamide] | 100 ng/mL

Same assay, conditions: concentration giving 43% inhibition; the concentration of the compound was not increased above the stated concentration; normalized to positive control

Row | Compound | Fluorescence Assay IC43
2 | CC(C)(C)NC(=O)c1ccccc1CC(O)C(Cc1ccccc1)NC(=O)C(N)CC(N)=O (stereo not drawn) [Example 5B, 2R-(2R*, 3S*, 6S*)!-N-t-Butyl-2-2-hydroxy-3-phenylmethyl-4-aza-5-oxo-6-amino-7-carbamoyl!heptyl benzamide] | 1000 ng/mL

Same assay, conditions: purified HIV-1 protease, biotin/FITC-labelled peptide substrate, Pandex read-out; all values normalized to the positive control (= 1.0)

Row | Compound | Fluorescence Assay IC50
3 | 2R- (2R*, 3S*, 6S*, 9R*)!-N-t-Butyl-2- 2-hydroxy-3-phenylmethyl-4,7-diaza -2,8-dioxo-6-(1-methylethyl)-9-amino-10-naphth-1-yl!benzamide [Example 4] | 2.48 ng/mL
4 | 2R-(3R*,3S*,6S*,9R*)!-N-t-Butyl-2- 2-hydroxy-3-phenylmethyl-4,7-diaza -5,8,dioxo-6-(carbamoylmethyl)-9-amino-10-naphth-1-yl!decyl benzamide [Example 8] | 2.28 ng/mL
5 | CC(C)C(NC(=O)C(Cc1cccc2ccccc12)NC(=O)OC(C)(C)C)C(=O)NC(Cc1ccccc1)C(O)Cc1ccccc1C(=O)NC(C)(C)C (stereo not drawn) [Example 1C, 2R-(2R*, 3S*, 6S*, 9S*)!-N-t-Butyl-2-2-hydroxy-3-phenylmethyl-4,7-diaza-5,8-dioxo-6-(1-methylethyl)-9-N(t-butoxycarbonyl)amino-10-naphth-1-yl!decyl benzamide] | 1.44 ng/mL
6 | CC(C)C(NC(=O)C(Cc1cccc2ccccc12)NC(=O)OC(C)(C)C)C(=O)NC(Cc1ccccc1)C(O)Cc1ccccc1C(=O)NC(C)(C)C (stereo not drawn) [Example 2, 2R-(2R*,3S*,6S*,9R*)!-N-t-Butyl-2-2-hydroxy-3-phenylmethyl-4,7-diaza-5,8-dioxo-6-(1-methylethyl)-9-N(t-butoxycarbonyl)amino-10-naphth-1-yl!decyl benzamide] | 3.13 ng/mL
7 | CC(C)C(NC(=O)C(N)Cc1cccc2ccccc12)C(=O)NC(Cc1ccccc1)C(O)Cc1ccccc1C(=O)NC(C)(C)C (stereo not drawn) [Example 3, 2R-(2R*, 3S*, 6S*, 9S*)!-N-t-Butyl-2-2-hydroxy-3-phenylmethyl-5,8-dioxo-6-(1-methylethyl)-9-amino-10-naphth-1-yl!decyl benzamide] | 0.48 ng/mL
8 | CC(C)(C)NC(=O)c1ccccc1CC(O)C(Cc1ccccc1)NC(=O)C(CC(N)=O)NC(=O)C(Cc1cccc2ccccc12)NC(=O)OC(C)(C)C (stereo not drawn) [Example 5C, 2R-(2R*,3S*, 6S*,9R*)!-N-t-Butyl-2-2-hydroxy-3-phenylmethyl-4,7-diaza-5,8-dioxo-6-(carbamoylmethyl)-9-N(t-butoxycarbonyl))amino-10-naphth-1-yl!decyl benzamide] | 0.53 ng/mL
9 | CC(C)(C)NC(=O)c1ccccc1CC(O)C(Cc1ccccc1)NC(=O)C(CC(N)=O)NC(=O)C(Cc1cccc2ccccc12)NC(=O)OC(C)(C)C (stereo not drawn) [Example 6, 2R-(2R*,3S*,6S*,9S*)!-N-t-Butyl-2-2-hydroxy-3-phenylmethyl-4,7-diaza-5,8-dioxo-6-(carbamoylmethyl)-9-N(t-butoxycarbonyl)amino-10-naphth-1-yl!decyl benzamide] | 2.4 ng/mL
10 | CC(C)(C)NC(=O)c1ccccc1CC(O)C(Cc1ccccc1)NC(=O)C(CC(N)=O)NC(=O)C(N)Cc1cccc2ccccc12 (stereo not drawn) [Example 7, 2R-(2R*, 3S*, 6S*, 9S*)!-N-t-Butyl-2-2-hydroxy-3-phenylmethyl-4,7-diaza-5,8-dioxo-6-(carbamoylmethyl)-9-amino-10-naphth-1-yl!decyl benzamide] | 0.95 ng/mL
11 | CC(C)(C)NC(=O)c1ccccc1CC(O)C(Cc1ccccc1)NC(=O)C(CC(N)=O)NC(=O)C(Cc1ccccc1)NC(=O)OC(C)(C)C (stereo not drawn) [Example 9, 2R-(2R*, 3S*, 6S*, 9S*)!-N-t-Butyl-2-2-hydroxy-3-phenylmethyl-4,7-diaza-5,8-dioxo-6-(carbamoylmethyl)-9-N(t-butoxycarbonyl)amino-10-phenyl!decyl benzamide] | 1.76 ng/mL
12 | CC(C)(C)NC(=O)c1ccccc1CC(O)C(Cc1ccccc1)NC(=O)C(CC(N)=O)NC(=O)C(Cc1ccccc1)NC(=O)OC(C)(C)C (stereo not drawn) [Example 10, 2R-(2R*, 3S*, 6S*, 9R* )!-N-t-Butyl-2-2-hydroxy-3-phenylmethyl-4,7-diaza-5,8-dioxo-6-(carbamoylmethyl)-9-N(t-butoxycarbonyl)amino-10-phenyl!decyl benzamide] | 1.67 ng/mL
13 | CC(C)(C)NC(=O)c1ccccc1CC(O)C(Cc1ccccc1)NC(=O)C(Cc1c[nH]cn1)NC(=O)C(Cc1cccc2ccccc12)NC(=O)OC(C)(C)C (stereo not drawn) [Example 11C, 2R-(2R*,3S*,6S*,9S*)!-N-t-Butyl-2-2-hydroxy-3-phenylmethyl-4,7-diaza-5,8-dioxo-6-(imidazol-4-ylmethyl)-9-N(t-butoxycarbonyl)amino-10-naphth-1-yl!decyl benzamide] | 7.78 ng/mL
14 | CC(C)(C)NC(=O)c1ccccc1CC(O)C(Cc1ccccc1)NC(=O)C(Cc1c[nH]cn1)NC(=O)C(Cc1cccc2ccccc12)NC(=O)OC(C)(C)C (stereo not drawn) [Example 12, 2R-(2R*,3S*,6S*,9R*)!-N-t-Butyl-2-2-hydroxy-3-phenylmethyl-4,7-diaza-5,8-dioxo-6-(imidazol-4-ylmethyl)-9-N(t-butoxycarbonyl)amino-10-naphth-1-yl!decyl benzamide] | 1.6 ng/mL
15 | CC(C)(C)NC(=O)c1ccccc1CC(O)C(Cc1ccccc1)NC(=O)C(CC(N)=O)NC(=O)C(Cc1cccc2ccccc12)NC(=O)OC(C)(C)C (stereo not drawn) [Example 13, 2R-(2R*,3S*, 6R*,9S*)!-N-t-Butyl-2-2-hydroxy-3-phenylmethyl-4,7-diaza-5,8-dioxo-6-(carbamoylmethyl)-9-N(t-butoxycarbonyl)amino-10-naphth-1-yl!decyl benzamide] | > 10000 ng/mL
16 | CC(C)(C)NC(=O)c1ccccc1CC(O)C(Cc1ccccc1)NC(=O)C(CC(N)=O)NC(=O)C(Cc1c[nH]c2ccccc12)NC(=O)OC(C)(C)C (stereo not drawn) [Example 14, 2R-(2R*, 3S*, 6S*, 9S*)!-N-t-Butyl-2-2-hydroxy-3-phenylmethyl-4,7-diaza-5,8-dioxo-6-(carbamoylmethyl)-9-N(t-butoxycarbonyl)amino-10-indol-3-yl!decyl benzamide] | 0.93 ng/mL
17 | CC(C)(C)NC(=O)c1cccc(CC(O)C(Cc2ccccc2)NC(=O)C(CC(N)=O)NC(=O)C(Cc2c[nH]c3ccccc23)NC(=O)OC(C)(C)C)c1 (stereo not drawn) [Example 15, 2R-(2R*, 3S*, 6S*, 9R*)!-N-t-Butyl-3-2-hydroxy-3-phenylmethyl-4,7-diaza-5,8-dioxo-6-(carbamoylmethyl)-9-N(t-butoxycarbonyl)amino-10-indol-3-yl!decyl benzamide] | 1.05 ng/mL
18 | CC(C)(C)NC(=O)c1ccccc1CC(O)C(Cc1ccccc1)NC(=O)C(CC(N)=O)NC(=O)C(NC(=O)OC(C)(C)C)c1ccccc1 (stereo not drawn) [Example 16, 2R-(2R*, 3S*, 6S*, 9S*)!-N-t-Butyl-2-2-hydroxy-3-phenylmethyl-4,7-diaza-5,8-dioxo-6-(carbamoylmethyl)-9-N(t-butoxycarbonyl)amino-9-phenyl!nonyl benzamide] | 106 ng/mL
